Test results published in patent US20090099192A1, “Substituted 1H-pyrrole-2,5-diones” (Bayer CropScience AG, priority 2004, published 2009).

Legend:
[1] = system: green peach aphid (Myzus persicae); assay: Myzus test (spray treatment, Brassica pekinensis); type: in vivo; conditions: for Kill rate in % after 5 d: 500 g/ha, spray, Brassica pekinensis disks
Description: (§1) [table] To produce a suitable preparation of active compound, 1 part by weight of active compound is mixed with the stated amounts of solvents and emulsifier, and the concentrate is diluted with emulsifier-containing water to the desired concentration. Disks of Chinese cabbage (Brassica pekinensis) which are infested by all stages of the green peach aphid (Myzus persicae) are sprayed with an active compound preparation of the desired concentration. After the desired period of time, the effect in % is determined. 100% means that all aphids have been killed; 0% means that none of the aphids have been killed.

[2] = system: black bean aphid (Aphis fabae); assay: Aphis fabae test; type: in vivo
Description: [table] To produce a suitable preparation of active compound, 1 part by weight of active compound is mixed with the stated amounts of solvent and emulsifier, and the concentrate is diluted with emulsifier-containing water to the desired concentration. Shoots of young broadbeans (Vicia faba) which are heavily infested by the black bean aphid (Aphis fabae) are treated by being dipped into the active compound preparation of the desired concentration. After the desired period of time, the kill in % is determined. 100% means that all aphids have been killed; 0% means that none of the aphids have been killed.

[3] = system: larvae of the mustard beetle (Phaedon cochleariae); assay: Phaedon larvae test (cabbage leaves dipped); type: in vivo; conditions: for Kill rate in % after 7 d: leaf dip, Brassica oleracea
Description: [table] To produce a suitable preparation of active compound, 1 part by weight of active compound is mixed with the stated amount of solvent and the stated amount of emulsifier, and the concentrate is diluted with water to the desired concentration. Cabbage leaves (Brassica oleracea) are treated by being dipped into the active compound preparation of the desired concentration and populated with larvae of the mustard beetle (Phaedon cochleariae) while the leaves are still moist. After the desired period of time, the kill in % is determined. 100% means that all beetle larvae have been killed; 0% means that none of the beetle larvae have been killed.

[4] = system: caterpillars of the diamond back moth (Plutella xylostella); assay: Plutella test; type: in vivo
Description: [table] To produce a suitable preparation of active compound, 1 part by weight of active compound is mixed with the stated amounts of solvent and emulsifier, and the concentrate is diluted with emulsifier-containing water to the desired concentration. Cabbage leaves (Brassica oleracea) are treated by being dipped into the active compound preparation of the desired concentration and populated with caterpillars of the diamond back moth (Plutella xylostella) while the leaves are still moist. After the desired period of time, the kill in % is determined. 100% means that all caterpillars have been killed; 0% means that none of the caterpillars have been killed.

[5] = system: common spidermite (Tetranychus urticae); assay: Tetranychus test; type: in vivo; conditions: for Kill rate in % after 5 d: 500 ppm, spray, Phaseolus vulgaris disks
Description: (§2) To produce a suitable preparation of active compound, 1 part by weight of active compound is mixed with the stated amounts of solvent and emulsifier, and the concentrate is diluted with emulsifier-containing water to the desired concentration.
Disks of beans (Phaseolus vulgaris), which are infested by all stages of the common spidermite (Tetranychus urticae) are sprayed with an active compound preparation of the desired concentration.
After the desired period of time, the effect in % is determined. 100% means that all spidermites have been killed; 0% means that none of the spidermites have been killed.

[6] = system: caterpillars of the diamond back moth (Plutella xylostella, resistant strain); assay: Plutella test; resistant strain; type: in vivo
Description: as §2
Cabbage leaves (Brassica oleracea) are treated by being dipped into the active compound preparation of the desired concentration and populated with caterpillars of the diamond back moth (Plutella xylostella, resistant strain) while the leaves are still moist.
After the desired period of time, the kill in % is determined. 100% means that all caterpillars have been killed; 0% means that none of the caterpillars have been killed.

[7] = logP determination by HPLC on reversed-phase column (C 18), EEC Directive 79/831 Annex V.A8; type: physicochemical; conditions: reversed-phase C 18, 43° C., acid range (0.1% aqueous phosphoric acid, acetonitrile), marked a)
How it was run: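 Reversed-phase C18 HPLC at 43° C, per EEC Directive 79/831 Annex V.A8, acid range: 0.1% aqueous phosphoric acid with linear 10–90% acetonitrile gradient. logP derived from retention time by linear interpolation between calibrating unbranched alkan-2-ones (C3–C16) of known logP.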

[8] = system: larvae of the mustard beetle (Phaedon cochleariae); assay: Phaedon test (spray treatment); type: in vivo; conditions: for Kill rate in % after 7 d: spray, Brassica pekinensis disks
Description: (§3) [table] To produce a suitable preparation of active compound, 1 part by weight of active compound is mixed with the stated amounts of solvents and emulsifier, and the concentrate is diluted with emulsifier-containing water to the desired concentration. Disks of Chinese cabbage (Brassica pekinensis) are sprayed with an active compound preparation of the desired concentration and, after drying, populated with larvae of the mustard beetle (Phaedon cochleariae). After the desired period of time, the effect in % is determined. 100% means that all beetle larvae have been killed; 0% means that none of the beetle larvae have been killed.

[9] = system: caterpillars of the army worm (Spodoptera frugiperda); assay: Spodoptera frugiperda test (cabbage leaves dipped); type: in vivo
Description: (§4) [table] To produce a suitable preparation of active compound, 1 part by weight of active compound is mixed with the stated amount of solvent and the stated amount of emulsifier, and the concentrate is diluted with emulsifier-containing water to the desired concentration. Cabbage leaves (Brassica oleracea) are treated by being dipped into the active compound preparation of the desired concentration and populated with caterpillars of the army worm (Spodoptera frugiperda) while the leaves are still moist. After the desired period of time, the kill in % is determined. 100% means that all caterpillars have been killed; 0% means that none of the caterpillars have been killed.

[10] = system: caterpillars of the army worm (Spodoptera exigua); assay: Spodoptera exigua test; type: in vivo
Description: as §4, with “amounts” for “amount”, “and” for “and the stated amount of”, “exigua)” for “frugiperda)”

[11] = system: green peach aphid (Myzus persicae); assay: Myzus test - oral; type: in vivo; conditions: for Kill rate in % after 6 d: 20 ppm, oral (sucking)
Description: as §1, with “solvent,” for “solvents and emulsifier,”, “with” for “with emulsifier-containing”, “Vessels” for “Disks of Chinese cabbage (Brassica pekinensis) which”, “populated with” for “infested by”, “persicae), which” for “persicae)”, “treated by sucking on the” for “sprayed with an”

[12] = system: green peach aphid (Myzus persicae); assay: Myzus test (spray treatment, Brassica oleracea); type: in vivo; conditions: for Kill rate in % after 7 d: 500 g/ha, spray, Brassica oleracea
Description: (§5) [table] To produce a suitable preparation of active compound, 1 part by weight of active compound is mixed with the stated amounts of solvent and emulsifier, and the concentrate is diluted with emulsifier-containing water to the desired concentration. Cabbage leaves (Brassica oleracea) which are heavily infested by the green peach aphid (Myzus persicae) are treated by spraying with the active compound preparation at the desired concentration. After the desired period of time, the kill in % is determined. 100% means that all animals have been killed; 0% means that none of the animals have been killed.

[13] = system: caterpillars of the army worm (Spodoptera frugiperda); assay: Spodoptera frugiperda test (corn leaf disks sprayed); type: in vivo; conditions: for Kill rate in % after 7 d: 500 g/ha, spray, Zea mays leaf disks
Description: as §3, with “corn leaves (Zea mays)” for “Chinese cabbage (Brassica pekinensis)”, “caterpillars” for “larvae”, “army worm (Spodoptera frugiperda).” for “mustard beetle (Phaedon cochleariae).”, “caterpillars” for “beetle larvae”

[14] = system: cotton aphid (Aphis gossypii); assay: Aphis gossypii test; type: in vivo; conditions: for Kill rate in % after 7 d: 500 g/ha, spray, Gossypium hirsutum
Description: as §5, with “Cotton” for “Cabbage”, “(Gossypium hirsutum)” for “(Brassica oleracea)”, “cotton” for “green peach”, “(Aphis gossypii)” for “(Myzus persicae)”

| Compound | melting point [°C] | activity in the Myzus test (spray, Brassica pekinensis) [1] | Kill rate in % after 5 d [1] [%] | activity in the Phaedon larvae test [3] | Kill rate in % after 5 d [5] [%] | logP [7] | activity in the Phaedon test (spray treatment) [8] | activity in the Myzus test - oral [11] | Kill rate in % after 6 d [11] [%] | activity in the Myzus test (spray, Brassica oleracea) [12] | Kill rate in % after 7 d [12] [%] | activity in the Tetranychus test [5] | Kill rate in % after 7 d ([8]; 500 g/ha) [%] | activity in the Spodoptera frugiperda test (spray) [13] | Kill rate in % after 7 d [13] [%] | activity in the Aphis gossypii test [14] | Kill rate in % after 7 d [14] [%] | also measured |
| --- | --- | --- | --- | --- | --- | --- | --- | --- | --- | --- | --- | --- | --- | --- | --- | --- | --- | --- |
| CCN1C(=O)C(O)=C(c2c(C)cc(C)cc2C)C1=O [Example 1, 1-ethyl-3-hydroxy-4-(2,4,6-trimethylphenyl)-1H-pyrrole-2,5-dione] | 168 |  |  |  |  |  |  |  |  |  |  |  |  |  |  |  |  |  |
| C=CCN1C(=O)C(O)=C(c2c(C)cc(C)cc2C)C1=O [Example 4] |  | good activity | 70 | good activity |  |  |  |  |  |  |  |  |  |  |  |  |  | activity in the Aphis fabae test [2]: good activity; Kill rate in % after 6 d ([2]; 1000 ppm, Vicia faba shoots dipped): 99%; Kill rate in % after 7 d ([3]; 1000 ppm): 100% |
| O=C1C(O)=C(c2ccccc2Cl)C(=O)N1C1CCCC(C(F)(F)F)C1 (stereo not drawn) [Example 214] |  |  |  | good activity | 90 | logP = 3.53^a) | good activity |  |  |  |  |  |  |  |  |  |  | activity in the Plutella test [4]: good activity; Kill rate in % after 7 d ([4]; 500 ppm, leaf dip): 100%; activity in the Plutella test, resistant strain [6]: good activity; Kill rate in % after 7 d ([6]; 500 ppm, leaf dip, resistant strain): 100%; Kill rate in % after 7 d ([8]; 100 g/ha): 100%; activity in the Spodoptera frugiperda test (leaf dip) [9]: good activity; Kill rate in % after 7 d ([9]; 500 ppm, leaf dip, Brassica oleracea): 100%; Kill rate in % after 7 d ([3]; 500 ppm): 100%; activity in the Spodoptera exigua test [10]: good activity; Kill rate in % after 7 d ([10]; 500 ppm, leaf dip): 100% |
| CC(C)(C)C(=O)OC1=C(c2ccccc2Cl)C(=O)N(C2CCCC(C(F)(F)F)C2)C1=O (stereo not drawn) [Example 201] |  | good activity | 100 |  | 100 | logP = 5.29^a) | good activity | good activity | 100 | good activity | 98 | good activity | 100 | good activity | 100 | good activity | 99 |  |
| CCN1C(=O)C(OC(=O)C(C)(C)C)=C(c2c(C)cc(C)cc2C)C1=O [Example 2, 1-ethyl-3-pivaloyloxy-4-(2,4,6-trimethylphenyl)-1H-pyrrole-2,5-dione] | 91 | good activity | 90 |  |  |  |  |  |  |  |  |  |  |  |  |  |  |  |
| CC(C)(C)C(=O)OC1=C(c2ccccc2Br)C(=O)N(C2CCCC(C(F)(F)F)C2)C1=O (stereo not drawn) [Example 185] |  | good activity | 100 |  | 80 | logP = 5.34^a) | good activity | good activity | 100 | good activity | 95 | good activity | 100 | good activity | 100 | good activity | 95 |  |
